# In article PMC8294059, “Identification and Immune Assessment of T Cell Epitopes in Five Plasmodium falciparum Blood Stage Antigens to Facilitate Vaccine Candidate Selection and Optimization” (Frontiers in Immunology, 2021):
# Where a SMILES comes first, the peptide text is derived from it.
# Molecular target: HLA-B*4402 (Homo sapiens, UniProt P01889, A223V/A65T/A93T/A95T/D201E/D98Y/E176V/E187L/E204Q/E69K/G107R/H137Y/K202T/L105A/L119I/N104T/N87E/Q56L/Q94N/R106L/R155S/R180D/S101N/S121R/S35A/S48T/T118I/V36M/W191S/Y140D/Y91S)
# Experiment: In vitro class I HLA binding assay (fluorescence polarization competition)
# Settings: allele B*4402; cell-free competition, fluorescence polarization at 72 hours; Non-binder = no dose-dependent inhibition
# How it was run: (§1)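 Cell-free competition assay: HLA heat-treated 53°C for 15 min to strip endogenous peptides, then mixed with fluorescent high-affinity control peptide and test peptides for 72 h to equilibrium. Displacement read by fluorescence polarization as percent inhibition; IC50 derived from a concentration range.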
row,Compound,IC50 (nM)
1,NENNENNFL [EBA175_1454],Non-binder

# Same assay, conditions: allele B*4402; cell-free competition, fluorescence polarization at 72 hours; Non-binder = no dose-dependent inhibition; read-out: IC50
row,Compound,IC50
1,CC[C@H](C)[C@H](NC(=O)[C@H](Cc1c[nH]c2ccccc12)NC(=O)[C@H](CCC(N)=O)NC(=O)[C@@H](NC(=O)[C@@H](NC(=O)[C@H](CCC(N)=O)NC(=O)[C@H](CC(C)C)NC(=O)[C@H](CCC(=O)O)NC(=O)[C@@H](N)CCC(=O)O)[C@@H](C)CC)[C@@H](C)O)C(=O)O [EBA175_0316] (H-EELQITQWI-OH),19600 nM
2,CC[C@H](C)[C@H](NC(=O)[C@H](CC(=O)O)NC(=O)[C@@H](NC(=O)[C@H](Cc1c[nH]cn1)NC(=O)[C@H](CO)NC(=O)[C@H](CC(C)C)NC(=O)[C@H](CCCNC(=N)N)NC(=O)[C@H](CCC(=O)O)NC(=O)[C@H](CCC(=O)O)NC(=O)[C@@H](N)CCC(=O)O)[C@@H](C)O)C(=O)O [EBA175_1211] (H-EEERLSHTDI-OH),19100 nM
3,CC(C)C[C@H](NC(=O)[C@@H](NC(=O)[C@H](Cc1c[nH]cn1)NC(=O)[C@H](Cc1c[nH]c2ccccc12)NC(=O)[C@H](CCC(=O)O)NC(=O)[C@@H](N)Cc1ccccc1)[C@@H](C)O)C(=O)N[C@@H](CO)C(=O)N[C@@H](CCCCN)C(=O)N[C@@H](CCC(=O)O)C(=O)N[C@@H](Cc1ccc(O)cc1)C(=O)O [EBA175_0375] (H-FEWHTLSKEY-OH),19100 nM

# Same assay, conditions: allele B*4402; fluorescence polarization competition
row,Compound,"IC50 (nM), in vitro HLA binding affinity"
1,NEYSLFITS [RH5_464],Non-binder
2,KDLSDMTNI [RH5_378],Non-binder
3,EEKDDIKNG [RH5_049],Non-binder
4,NEKNDVKNN [RH5_123],Non-binder
5,KEIDNDKENI [RH5_062],Non-binder
6,KEKHLNNIF [RH5_486],Non-binder
7,SECDIGLIY [RIPR_0611],Non-binder
8,NDVPIKMEYF [RH5_506],Non-binder

# Same assay, conditions: allele B*4402; fluorescence polarization competition; read-out: IC50 (nM), in vitro HLA binding affinity
row,Compound,IC50
1,CC[C@H](C)[C@H](NC(=O)[C@H](CCCNC(=N)N)NC(=O)[C@H](CC(N)=O)NC(=O)[C@H](Cc1ccccc1)NC(=O)[C@@H](NC(=O)[C@H](Cc1c[nH]cn1)NC(=O)[C@H](CCCCN)NC(=O)[C@H](CCSC)NC(=O)[C@H](CCC(=O)O)NC(=O)[C@@H](N)CCCCN)[C@@H](C)CC)C(=O)O [RH5_415] (H-KEMKHIFNRI-OH),39200 nM
2,CC[C@H](C)[C@H](N)C(=O)N[C@@H](CCC(=O)O)C(=O)N[C@H](C(=O)N[C@H](C(=O)N[C@@H](CCC(=O)O)C(=O)N[C@@H](CCCNC(=N)N)C(=O)N[C@@H](CO)C(=O)N[C@@H](CC(N)=O)C(=O)N[C@@H](Cc1ccc(O)cc1)C(=O)O)C(C)C)[C@@H](C)CC [AMA1_097] (H-IEIVERSNY-OH),8030 nM
3,CC(C)C[C@H](NC(=O)[C@H](CC(N)=O)NC(=O)[C@H](CC(N)=O)NC(=O)[C@H](CCCCN)NC(=O)[C@H](Cc1ccc(O)cc1)NC(=O)[C@H](Cc1ccccc1)NC(=O)[C@H](CCCCN)NC(=O)[C@H](CCC(=O)O)NC(=O)[C@@H](N)CCCCN)C(=O)N[C@@H](Cc1ccc(O)cc1)C(=O)O [RIPR_0378] (H-KEKFYKNNLY-OH),919000 nM
4,CC(C)C[C@H](NC(=O)[C@H](Cc1ccc(O)cc1)NC(=O)[C@H](Cc1c[nH]cn1)NC(=O)[C@@H](NC(=O)[C@H](CC(C)C)NC(=O)[C@H](CO)NC(=O)[C@H](CCCCN)NC(=O)[C@H](CC(N)=O)NC(=O)[C@H](CCC(=O)O)NC(=O)[C@@H](N)Cc1ccc(O)cc1)[C@@H](C)O)C(=O)O [RIPR_0226] (H-YENKSLTHYL-OH),112000 nM
5,CC(C)C[C@H](N)C(=O)N[C@@H](CCC(=O)O)C(=O)N[C@@H](Cc1ccccc1)C(=O)N[C@H](C(=O)N[C@@H](CS)C(=O)N[C@@H](CO)C(=O)N[C@@H](CC(N)=O)C(=O)N[C@@H](CCCNC(=N)N)C(=O)N[C@@H](CC(=O)O)C(=O)N[C@@H](Cc1ccccc1)C(=O)O)C(C)C [CYRPA_264] (H-LEFVCSNRDF-OH),7460 nM
6,CC[C@H](C)[C@H](NC(=O)[C@H](CC(=O)O)NC(=O)[C@H](CCC(N)=O)NC(=O)[C@@H](NC(=O)[C@H](CS)NC(=O)[C@H](CCCNC(=N)N)NC(=O)[C@H](Cc1ccc(O)cc1)NC(=O)[C@H](CC(N)=O)NC(=O)[C@H](CCC(=O)O)NC(=O)[C@@H](N)CCC(=O)O)[C@@H](C)O)C(=O)O [RIPR_0283] (H-EENYRCTQDI-OH),674000 nM
7,CC[C@H](C)[C@H](NC(=O)[C@H](CCC(=O)O)NC(=O)[C@@H](N)CC(N)=O)C(=O)N[C@@H](CC(=O)O)C(=O)N[C@@H](CCCCN)C(=O)N[C@@H](CC(C)C)C(=O)N[C@H](C(=O)N[C@@H](Cc1ccccc1)C(=O)N[C@@H](CO)C(=O)N[C@@H](CC(C)C)C(=O)O)[C@@H](C)O [RIPR_0031] (H-NEIDKLTFSL-OH),332000 nM
8,CC[C@H](C)[C@H](NC(=O)[C@@H](NC(=O)[C@@H](NC(=O)[C@H](CCC(=O)O)NC(=O)[C@H](CO)NC(=O)[C@H](CC(N)=O)NC(=O)[C@H](CC(N)=O)NC(=O)[C@H](Cc1ccc(O)cc1)NC(=O)[C@H](CCC(=O)O)NC(=O)[C@@H](N)CCCCN)[C@@H](C)CC)[C@@H](C)O)C(=O)O [CYRPA_142] (H-KEYNNSEITI-OH),11000 nM
9,CC(C)C[C@H](NC(=O)[C@H](CO)NC(=O)[C@H](CS)NC(=O)[C@@H]1CCCN1C(=O)[C@H](Cc1ccccc1)NC(=O)[C@H](CC(N)=O)NC(=O)[C@H](CC(N)=O)NC(=O)[C@H](CCC(=O)O)NC(=O)[C@@H](N)C(C)C)C(=O)N[C@@H](Cc1ccc(O)cc1)C(=O)O [AMA1_437] (H-VENNFPCSLY-OH),6020 nM
10,C[C@H](NC(=O)[C@H](CCCNC(=N)N)NC(=O)[C@H](CCCCN)NC(=O)[C@H](CCC(=O)O)NC(=O)[C@H](CCC(=O)O)NC(=O)CN)C(=O)N[C@@H](CO)C(=O)N[C@@H](Cc1c[nH]cn1)C(=O)N[C@H](C(=O)N[C@H](C(=O)O)[C@@H](C)O)[C@@H](C)O [AMA1_604] (H-GEEKRASHTT-OH),10000 nM

# Molecular target: HLA-A*0101 (Homo sapiens, UniProt P04439, A114D/A174V/A182V/D101N/D185E/E176A/E190D/L180R/Q94H/R68K/S129P/T187R/V100A/V91M/W191G)
# Experiment: biochemical
# Format: binding
# Settings: allele A*0101; fluorescence polarization competition
# How it was run: as §1
row,Compound,"IC50 (nM), in vitro HLA binding affinity"
1,SECDIGLIY [RIPR_0611],Non-binder

# Molecular target: HLA-A*0301 (Homo sapiens, UniProt P04439)
# Experiment: biochemical
# Format: binding
# Settings: allele A*0301; fluorescence polarization competition; read-out: IC50 (nM), in vitro HLA binding affinity
# How it was run: as §1
row,Compound,IC50
1,CC(C)C[C@H](NC(=O)[C@H](CO)NC(=O)[C@H](CS)NC(=O)[C@@H]1CCCN1C(=O)[C@H](Cc1ccccc1)NC(=O)[C@H](CC(N)=O)NC(=O)[C@H](CC(N)=O)NC(=O)[C@H](CCC(=O)O)NC(=O)[C@@H](N)C(C)C)C(=O)N[C@@H](Cc1ccc(O)cc1)C(=O)O [AMA1_437] (H-VENNFPCSLY-OH),85400 nM
